Reference: paper PMC9897788, “Design, synthesis and cytotoxic evaluation of novel bis-thiazole derivatives as preferential Pim1 kinase inhibitors with in vivo and in silico study” (Journal of Enzyme Inhibition and Medicinal Chemistry, 2023)

Assays:
Assay in all cases: NCI 60 cell one-dose screening (SRB)
Format in all cases: cell-based
[1] = tested on: M14; details: Homo sapiens; M14, Melanoma; single dose 10 µM, 48 h; read-out: Percentage of cellular growth inhibition
Procedure, shortened: (§1)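 Single 10 µM final dose, 48 h at 37 °C in RPMI 1640 with 5% FBS, cells plated 24 h before dosing. TCA fixation (10% adherent, 16% suspension), SRB staining, absorbance at 515 nm. Growth percentage versus no-drug control with time-zero correction, reported as inhibition % (100 minus growth).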

[2] = tested on: UACC-257; details: Homo sapiens; UACC-257, Melanoma; single dose 10 µM, 48 h; read-out: Percentage of cellular growth inhibition
Procedure, shortened: as §1

[3] = tested on: SK-OV-3; details: Homo sapiens; SK-OV-3, Ovarian Cancer; single dose 10 µM, 48 h; read-out: Percentage of cellular growth inhibition
Procedure, shortened: as §1

[4] = tested on: UACC-62; details: Homo sapiens; UACC-62, Melanoma; single dose 10 µM, 48 h; read-out: Percentage of cellular growth inhibition
Procedure, shortened: as §1

[5] = tested on: MOLT-4; details: Homo sapiens; MOLT-4, Leukemia; single dose 10 µM, 48 h; read-out: Percentage of cellular growth inhibition
Procedure, shortened: as §1

[6] = tested on: SNB-19; details: Homo sapiens; SNB-19, CNS Cancer; single dose 10 µM, 48 h; read-out: Percentage of cellular growth inhibition
Procedure, shortened: as §1

[7] = tested on: DU-145; details: Homo sapiens; DU-145, Prostate Cancer; single dose 10 µM, 48 h; read-out: Percentage of cellular growth inhibition
Procedure, shortened: as §1

[8] = tested on: SN12C; details: Homo sapiens, Renal Cancer, single dose 10 µM, 48 h, read-out: Percentage of cellular growth inhibition
Procedure, shortened: as §1

[9] = tested on: HCC-2998; details: Homo sapiens; HCC-2998, Colon Cancer; single dose 10 µM, 48 h; read-out: Percentage of cellular growth inhibition
Procedure, shortened: as §1

[10] = tested on: OVCAR-8; details: Homo sapiens; OVCAR-8, Ovarian Cancer; single dose 10 µM, 48 h; read-out: Percentage of cellular growth inhibition
Procedure, shortened: as §1

[11] = tested on: U251; details: Homo sapiens, U-251; U251, CNS Cancer; single dose 10 µM, 48 h; read-out: Percentage of cellular growth inhibition
Procedure, shortened: as §1

[12] = tested on: CCRF-CEM; details: Homo sapiens, Leukemia, single dose 10 µM, 48 h, read-out: Percentage of cellular growth inhibition
Procedure, shortened: as §1

[13] = tested on: HL-60(TB); details: Homo sapiens, Leukemia, single dose 10 µM, 48 h, read-out: Percentage of cellular growth inhibition
Procedure, shortened: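 DTP/NCI one-dose protocol: compound at 10 µM, 48 h, 37 °C, 5% CO2. Adherent lines fixed in 10% TCA, suspension lines in 16% TCA, then SRB-stained and read at 515 nm; data expressed as 100 minus percent growth.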

[14] = tested on: NCI-H226; details: Homo sapiens; NCI-H226, Non-Small Cell Lung Cancer; single dose 10 µM, 48 h; read-out: Percentage of cellular growth inhibition
Procedure, shortened: as §1

[15] = tested on: COLO 205; details: Homo sapiens; COLO 205, Colon Cancer; single dose 10 µM, 48 h; read-out: Percentage of cellular growth inhibition
Procedure, shortened: as §1

[16] = tested on: MDA-MB-435; details: Homo sapiens; MDA-MB-435, Melanoma; single dose 10 µM, 48 h; read-out: Percentage of cellular growth inhibition
Procedure, shortened: as §1

[17] = tested on: PC-3; details: Homo sapiens; PC-3, Prostate Cancer; single dose 10 µM, 48 h; read-out: Percentage of cellular growth inhibition
Procedure, shortened: as §1

[18] = tested on: OVCAR-5; details: Homo sapiens; OVCAR-5, Ovarian Cancer; single dose 10 µM, 48 h; read-out: Percentage of cellular growth inhibition
Procedure, shortened: as §1

[19] = tested on: BT-549; details: Homo sapiens; BT-549, Breast Cancer; single dose 10 µM, 48 h; read-out: Percentage of cellular growth inhibition
Procedure, shortened: as §1

[20] = tested on: HCT-116; details: Homo sapiens; HCT-116, Colon Cancer; single dose 10 µM, 48 h; read-out: Percentage of cellular growth inhibition
Procedure, shortened: as §1

[21] = tested on: CAKI-1; details: Homo sapiens; CAKI-1, Renal Cancer; single dose 10 µM, 48 h; read-out: Percentage of cellular growth inhibition
Procedure, shortened: as §1

| SMILES | inhibition at 10 µM [1] [%] | inhibition at 10 µM [2] [%] | inhibition at 10 µM [3] [%] | inhibition at 10 µM [4] [%] | inhibition at 10 µM [5] [%] | inhibition at 10 µM [6] [%] | inhibition at 10 µM [7] [%] | inhibition at 10 µM [8] [%] | inhibition at 10 µM [9] [%] | inhibition at 10 µM [10] [%] | inhibition at 10 µM [11] [%] | inhibition at 10 µM [12] [%] | inhibition at 10 µM [13] [%] | inhibition at 10 µM [14] [%] | inhibition at 10 µM [15] [%] | inhibition at 10 µM [16] [%] | inhibition at 10 µM [17] [%] | inhibition at 10 µM [18] [%] | inhibition at 10 µM [19] [%] | inhibition at 10 µM [20] [%] | further results |
| --- | --- | --- | --- | --- | --- | --- | --- | --- | --- | --- | --- | --- | --- | --- | --- | --- | --- | --- | --- | --- | --- |
| CC(=O)c1sc(Nc2cccc(Nc3nc(C)c(C(C)=O)s3)c2)nc1C [3b, 1,1’-(2,2’-(1,3-Phenylenebis(azanediyl))bis(4-methylthiazole-5,2-diyl))diethanone] | 48.7 | 11.3 | 74.2 | 51.2 | 61.7 | 9.1 | 54.6 | 45 | 19.9 | 56.6 | 34.3 | 38.8 | 65.8 | 34.6 | 22.3 | 40.9 | 48.7 | 16.5 | 53.8 | 55.8 | inhibition at 10 µM [21]: 71.9% |
| CCOC(=O)c1sc(Nc2cccc(Nc3nc(C)c(C(=O)OCC)s3)c2)nc1C [3c, Diethyl 2,2’-(1,3-phenylenebis(azanediyl))bis(4-methylthiazole-5-carboxylate)] | 14 | 10.3 | 1.3 | 33.1 | 29.2 | 17.7 | 16.2 | 11.8 | 9.7 | 17.3 | 16.7 | 11 | 22.7 | 15 | 12.8 | 17.9 | 22.9 | 8 | 26.3 | 43.5 | inhibition at 10 µM [21]: 21.9% |
| NC(=S)Nc1cccc(NC(N)=S)c1 [compound 2, 1,1′-(1,3-phenylene)bis(thiourea)] | -25.1 | 1.9 | -25.8 | 29.5 | 10.3 | 11.7 | -1.2 | 18.1 | -16.9 | 6 | 11.2 | 3.6 | 0.9 | 1.9 | -36.7 | 2.7 | -2.4 | -3.6 | -14.6 | -7 | inhibition at 10 µM [21]: 20.3% |
| c1ccc(/N=c2\scc(-c3ccccc3)n2-c2cccc(-n3c(-c4ccccc4)cs/c3=N\c3ccccc3)c2)cc1 [8a, N,N’-(3,3’-(1,3-phenylene)bis(4-phenylthiazole-3(3H)-yl-2(3H)-ylidene))dianiline] | -14.3 | -11.8 | -34.8 | 20.3 | -5.5 | -5.9 | -3.2 | 3.9 | -22.2 | -1.5 | 2.7 | -0.9 | -4.4 | 17 | -21.3 | 1 | 21.8 | -2.9 | -31.8 | -4.1 | inhibition at 10 µM [21]: 25.4% |
| Fc1ccc(-c2cs/c(=N\c3ccccc3)n2-c2cccc(-n3c(-c4ccc(F)cc4)cs/c3=N\c3ccccc3)c2)cc1 [8b, N,N’-(3,3’-(1,3-phenylene)bis(4–(4-fluorophenyl)thiazole-3(3H)-yl-2(3H)-ylidene))dianiline] | 0.4 | -7 | -15.4 | 41 | 50.1 | 5.6 | 17.1 | 7.5 | 12.1 | 12.4 | 28.1 | 35.2 | 15.8 | 23.5 | -0.4 | 13.1 | 32.1 | 14 | -4.1 | 16.7 | inhibition at 10 µM [21]: 22.2% |
| Fc1ccc(-c2csc(Nc3cccc(Nc4nc(-c5ccc(F)cc5)cs4)c3)n2)cc1 [6b, N^1,N^3-bis(4–(4-fluorophenyl)thiazol-2-yl)benzene-1,3-diamine] | 33.2 | 25.4 | 13.2 | 42.9 | 53.6 | 29.8 | 32.3 | 52.8 | 64.8 | 32.1 | 37.3 | 40.9 | 25.7 | 48.5 | 24.3 | 36.9 | 64.8 | 34.5 | 36 | 42.3 | inhibition at 10 µM [21]: 53.6% |
